One assay has as its target T1, EHMT1 (Homo sapiens, UniProt Q9H9B1).
T1 sequence (Q9H9B1 1-1298): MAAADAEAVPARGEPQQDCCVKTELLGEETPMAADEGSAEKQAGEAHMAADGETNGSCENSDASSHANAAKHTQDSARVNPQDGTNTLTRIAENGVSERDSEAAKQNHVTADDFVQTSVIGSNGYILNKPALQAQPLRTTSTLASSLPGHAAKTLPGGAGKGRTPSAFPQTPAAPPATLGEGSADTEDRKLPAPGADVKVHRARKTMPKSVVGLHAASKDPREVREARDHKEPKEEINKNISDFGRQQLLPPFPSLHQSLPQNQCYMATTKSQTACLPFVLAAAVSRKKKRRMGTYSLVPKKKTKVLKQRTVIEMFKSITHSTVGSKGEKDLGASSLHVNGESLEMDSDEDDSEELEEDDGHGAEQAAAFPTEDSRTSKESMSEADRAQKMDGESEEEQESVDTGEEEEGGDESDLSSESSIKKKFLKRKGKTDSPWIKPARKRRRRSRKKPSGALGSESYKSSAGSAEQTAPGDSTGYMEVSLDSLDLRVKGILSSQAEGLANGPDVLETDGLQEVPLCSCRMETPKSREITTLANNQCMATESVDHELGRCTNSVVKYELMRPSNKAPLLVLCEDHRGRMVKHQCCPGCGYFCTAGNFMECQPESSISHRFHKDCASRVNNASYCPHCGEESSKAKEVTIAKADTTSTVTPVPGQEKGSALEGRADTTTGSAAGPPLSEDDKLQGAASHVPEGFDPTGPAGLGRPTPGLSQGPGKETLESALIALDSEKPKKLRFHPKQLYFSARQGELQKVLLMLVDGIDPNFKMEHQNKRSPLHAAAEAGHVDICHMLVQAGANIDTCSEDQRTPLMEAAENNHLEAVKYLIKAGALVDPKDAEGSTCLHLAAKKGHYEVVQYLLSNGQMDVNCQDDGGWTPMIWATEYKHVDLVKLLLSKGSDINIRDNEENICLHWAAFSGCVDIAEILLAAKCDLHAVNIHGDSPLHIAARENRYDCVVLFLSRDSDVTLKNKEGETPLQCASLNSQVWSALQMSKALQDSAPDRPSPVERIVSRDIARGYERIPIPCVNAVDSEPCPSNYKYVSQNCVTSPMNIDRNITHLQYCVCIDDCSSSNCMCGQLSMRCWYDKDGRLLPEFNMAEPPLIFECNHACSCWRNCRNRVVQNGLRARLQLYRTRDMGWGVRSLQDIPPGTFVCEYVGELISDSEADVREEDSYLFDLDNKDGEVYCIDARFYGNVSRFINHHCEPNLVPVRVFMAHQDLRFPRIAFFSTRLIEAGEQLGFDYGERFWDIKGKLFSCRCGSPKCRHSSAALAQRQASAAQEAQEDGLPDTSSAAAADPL
The assay is described as follows: EHMT1 enzyme assay on peptide substrate (EHMT1 PEP). It counts as biochemical. To be noted: read-out: EHMT1 PEP (IC50 μM).

The next assay has as its target T2, human EHMT2 913-1193 (Homo sapiens, UniProt Q96KQ7).
T2 construct: recombinant purified human EHMT2 913-1193, Viva; purchased Viva
T2 sequence (Q96KQ7 913-1193): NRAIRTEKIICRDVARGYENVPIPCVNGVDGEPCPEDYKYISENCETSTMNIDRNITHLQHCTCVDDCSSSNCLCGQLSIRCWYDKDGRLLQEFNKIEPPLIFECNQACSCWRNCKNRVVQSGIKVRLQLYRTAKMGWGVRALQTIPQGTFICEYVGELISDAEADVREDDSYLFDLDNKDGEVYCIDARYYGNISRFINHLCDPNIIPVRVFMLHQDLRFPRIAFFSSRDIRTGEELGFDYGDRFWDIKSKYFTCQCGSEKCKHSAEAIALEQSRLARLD
The assay is described as follows: EHMT2 enzyme assay on histone peptide substrate (EHMT2 PEP). It is filed as biochemical. Particulars: recombinant human EHMT2 913-1193, histone H3 1-15 peptide, balanced conditions; read-out: EHMT2 PEP (IC50 μM). The procedure, abridged: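 Radiometric methyltransferase assay: 0.031 nM EHMT2 913-1193 preincubated 30 min with compound (10-point 3-fold series, top final 50 μM, 2% DMSO) in 20 mM Bicine pH 7.5, 1 mM TCEP. Biotinylated histone peptide methylated with ^3H-SAM for 60 min at room temperature, quenched with unlabeled SAM, captured on streptavidin Flashplates and counted.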

Molecules are shown by their SMILES.

As a reminder, the IC50 is the concentration that inhibits the measured activity by half. With `COc1cc2c(C3CCN(C)CC3)nc(N(C)C)nc2cc1OCCCN1CCCC1` [Compound 587], the IC50 at EHMT1 and on human EHMT2 913-1193 was under 0.1 µM throughout.

Regarding `CN1CCC(COc2cnc(NC3CCNCC3)nc2)C1` (stereo not drawn) [Compound 555], the IC50 at EHMT1 and on human EHMT2 913-1193 was over 10 µM each time.

As to `C/C=C/C(=O)Nc1cc(OCCCN2CCCC2)c(OC)cn1` [Compound 597], the IC50 on EHMT1 and at human EHMT2 913-1193 was over 10 µM throughout.

Regarding `CNc1cc(C)nc(Nc2ccc(OC)c(OC[C@@H]3CCNC3)c2)n1` [Compound 600], the IC50 at EHMT1 and on human EHMT2 913-1193 was under 0.1 µM in each case.

For `CCN1CC(C(O)Oc2cc(Nc3nc(C)cc(NC)n3)ccc2OC)C1` (stereo not drawn) [Compound 560], the IC50 on EHMT1 and at human EHMT2 913-1193 was 0.1 to 1 µM in each case.

`CCN1CC[C@@H](COc2cc(Nc3nc(C)cc(NC)n3)ccc2OC)C1` [Compound 571]: the IC50 on EHMT1 and on human EHMT2 913-1193 was under 0.1 µM throughout.

As for `COc1cnc(Nc2cccc3cncn23)cc1OCCCN1CCCC1` [Compound 589], the IC50 on EHMT1 and at human EHMT2 913-1193 was over 10 µM in each case.

As for `CCN1CC(COc2cc(Nc3cc(NC)cc(C)n3)cnc2OC)C1` [Compound 569], the IC50 on EHMT1 was under 0.1 µM; at human EHMT2 913-1193, 0.1 to 1 µM.

Consider `CCN1CC[C@@H](COc2cc(Nc3nc(C)cc(NC(C)C)n3)ccc2OC)C1` [Compound 602], for which the IC50 at EHMT1 and at human EHMT2 913-1193 was 0.1 to 1 µM each time.

For `COc1ncc(Nc2nc(C)cc(NCC3CCOCC3)n2)cc1OC[C@@H]1CCN(C2CCC2)C1` [Compound 595], the IC50 on EHMT1 and on human EHMT2 913-1193 was 0.1 to 1 µM throughout.

In the case of `CNc1cc(C)nc(Nc2ccc(OC)c(OCCCN(C)C3CCC3)c2)n1` [Compound 551, N^2-(3-(3-(cyclobutyl(methyl)amino)propoxy)-4-methoxyphenyl)-N^4,6-dimethylpyrimidine-2,4-diamine], the IC50 at EHMT1 and at human EHMT2 913-1193 was 0.1 to 1 µM in each case.

For the compound `CCN1CC[C@@H](COc2cc(Nc3nc(C)cc(NC)n3)cnc2OC)C1` [Compound 599], the IC50 at EHMT1 is under 0.1 µM; on human EHMT2 913-1193, 0.1 to 1 µM.

As to `CCN1CC(COc2cc(Nc3cccc4nncn34)ncc2OC)C1` [Compound 584], the half-inhibitory concentration (IC50) at EHMT1 and at human EHMT2 913-1193 was over 10 µM each time.

As to `COc1ncc(Nc2nc(C)cc(NCC3CCOCC3)n2)cc1OC[C@@H]1CCN(C(C)C)C1` [Compound 592], the IC50 on EHMT1 and at human EHMT2 913-1193 was 0.1 to 1 µM each time.

On to `CCCC1(Nc2nccc(NC)n2)CCNCC1` [Compound 545], for which the IC50 at EHMT1 and on human EHMT2 913-1193 was over 10 µM each time.

Turning to `COc1cnc(Nc2ccnc3[nH]ncc23)cc1OCCCN1CCCC1` [Compound 583], the IC50 at EHMT1 and on human EHMT2 913-1193 was 1 to 10 µM throughout.

Take `CCCCN1CCC(C)(Nc2nccc(NC)n2)CC1` [Compound 550, N^2-(1-butyl-4-methylpiperidin-4-yl)-N^4-methylpyrimidine-2,4-diamine]: the IC50 on EHMT1 and on human EHMT2 913-1193 was over 10 µM each time.

Consider `CNc1cc(C)nc(Nc2cnc(OC)c(OC[C@H]3CCN(C4CC4)C3)c2)n1` [Compound 558], for which the IC50 was under 0.1 µM on EHMT1 and 0.1 to 1 µM at human EHMT2 913-1193.

Regarding `CCN1CC(COc2cc(Nc3nccc4[nH]ccc34)ncc2OC)C1` [Compound 564], the IC50 at EHMT1 and on human EHMT2 913-1193 was under 0.1 µM throughout.

Regarding `C/C=C/C(=O)Nc1ccc(OC)c(OCCCN2CCCC2)c1` [Compound 598], the IC50 on EHMT1 and at human EHMT2 913-1193 was over 10 µM each time.

As to `CCN1CC(COc2cc(Nc3cc(NC)ncc3F)ncc2OC)C1` [Compound 566], the IC50 on EHMT1 and on human EHMT2 913-1193 was 1 to 10 µM throughout.

(Values after patent US20210198277A1, “AMINE-SUBSTITUTED ARYL OR HETEROARYL COMPOUNDS” (Epizyme, Inc., priority 2016, published 2021).)
